PMC11775380, “Discovery of Novel Nav1.7-Selective Inhibitors with the 1H-Indole-3-Propionamide Scaffold for Effective Pain Relief” (Research, 2025)

Tests used:
[1] = test system: native Ca2+ current (Cav channels) in DRG neurons; test: Voltage-clamp recording of native Ca2+ current in DRG neurons; format: cell-based; settings: 10 μM; mouse DRG neurons
Description: To investigate the mechanism of action of WN2-R and facilitate animal model experiments, we used voltage-clamp recording to test the effects of WN2-R on the native Na^+-, K^+-, and Ca^2+-mediated currents in DRG neurons. […] Furthermore, the effects of WN2-R on membrane excitability were examined in small (<30 μm) DRG neurons from mice using current-clamp recordings.
DRG isolation and culture were performed according to our previous report. Briefly, C57BL/6 mice (weight 18 to 20 g, 6 to 8 weeks) were euthanized via cervical dislocation under anesthesia. Lumbar DRGs were isolated from the L4 to L5 segments of the lumbar spinal cord. The DRG neurons were subsequently dissociated through enzymatic digestion with collagenase (0.32 mg/ml) and trypsin (0.15 mg/ml) at 37 °C for 30 min, with intermittent shaking. After centrifugation at 800 rpm for 5 min at room temperature, the cells were seeded onto poly-L-lysine-coated coverslips and cultured in DMEM (Gibco) supplemented with 10% fetal bovine serum (Gibco). […]
For recording Nav currents of DRG neurons, the bath solution contains (in mM) 30 NaCl, 1 MgCl2, 1.8 CaCl2, 5 CsCl, 5 KCl, 25 D-glucose, 5 HEPES, 0.1 CdCl2, and TEA-Cl (pH 7.4 with NaOH), and the pipette solution contains (in mM) 135 CsCl, 10 NaCl, and 5 HEPES (pH 7.4 with CsOH). The Nav current program is recorded following the above method. […]

[2] = test system: SNI neuropathic pain model in mice; test: Spared nerve injury (SNI) neuropathic pain model; format: in vivo, C57 mice
Source text: Peripheral nerve injury models were developed to investigate the mechanisms of neuropathic pain. One such model, the spared nerve injury (SNI) neuropathic pain model in mice, involved ligating and transecting the […] and tibial nerves within the […] nerve, while leaving the sural nerve untouched. […] To evaluate the neuroanalgesic potential of WN2-R in this model, both i.g. and i.m. routes were used to evaluate the neuroanalgesic effect of WN2-R in this model (n = 5). […] In contrast, PF-05089771 reached its peak at 1 h (PWTs = 1.08 g) but then rapidly lost its efficacy, resembling the saline control group after 1 h. Throughout the experiment, the PWTs of the WN2-R group remained consistently higher than that of the PF-05089771 group (Fig. 6F and G). […] Subsequently, the efficacy of both drugs gradually declined, converging with the saline group after 3 h. Throughout the entire dosing period, the PWTs of the WN2-R group were slightly higher than that of the PF-05089771 group (Fig. 6M and N). […] To elucidate the time course of pain hypersensitivity induced by SNI, the behavioral responses (mechanical testing with von Frey fibers) were measured before surgery (baseline value) in C57 mice (5 female). Then, the mice underwent SNI surgery, which involved ligation and axotomy of the common peroneal and tibial nerves, while sparing the sural nerve. Sham-operated mice served as controls, with their nerves remaining intact. To confirm the presence of pain hypersensitivity in the SNI group, behavioral testing was carried out 14 days after SNI in each animal. Post drugs/saline administration, PWTs were measured at 0, 0.5, 1, 1.5, 2, 2.5, and 3 h for the i.g. route, and at 0, 0.5, 1, 2, 3, and 4 h for the i.m. route.

mice = settings: mouse, in vivo
Description: VGSC inhibitors required credible subtype selectivity to void side effects caused by binding to nontarget subtypes. At a concentration of 1 μM, the inhibitory rates of WN2-R on hNav1.2, hNav1.3, hNav1.4, hNav1.5, mNav1.6, and hNav1.8 were determined (n = 3 to 6, Fig. 7A). […] To further evaluate the drug safety profile, high-dose acute toxicity experiments were conducted. Mice were administered a high dose of 30 mg/kg WN2-R through i.p. administration. The rotarod test, forced-swim test, and open field test were used to explore the effect of high-dose WN2-R on the motor ability of mice (n = 4). The rotarod test evaluated the drug's effect on motor coordination, the forced-swim test examined its impact on the overall motor system, and the open field test assessed the drug's influence on the motor and nervous systems.

Cc1ccc(Cn2cc([C@H](CC(=O)NCCN(C)C)c3ccc(F)cc3)c3ccccc32)cc1 [WN2-R]
Effect on native Ca2+ current [1]: almost no effect | Duration of significant efficacy ([2]; i.g.): at least 2 h | Paw withdrawal threshold (PWTs) ([2]; i.g., 1 h post drug application, 14 days after SNI): 1.72 g | Time after which efficacy converged with the saline group ([2]; i.m.): 3 h | Time of peak efficacy ([2]; i.m.): 1 h | Paw withdrawal threshold (PWTs) at peak efficacy ([2]; i.m., 1 h post drug application, 14 days after SNI): 1.39 g | Survival after high dose (mice): survived normally
